Assay results published in US20250129095A1, “ANNULATED 2-AMINO-3-CYANO THIOPHENES AND DERIVATIVES FOR THE TREATMENT OF CANCER” (Boehringer Ingelheim Int'l GmbH Corp., priority 2021, published 2025).

How the values were obtained:
KRAS G12D Ba/F3 = KRAS G12D Ba/F3 (Homo sapiens, UniProt P01116, G12D, cells depend on it); test: Ba/F3 proliferation assay, KRAS G12D; format: cell-based; conditions: 72 h, AlamarBlue, read-out: KRAS G12D Ba/F3 IC50
Experimental: (§1) Plasmids containing KRASG12 mutants(i.e. G12D, G12C, G12V) are obtained from GeneScript. To generate KRASG12-dependent Ba/F3 models, Ba/F3 cells are transduced with retroviruses containing vectors that harbor KRASG12 isoforms. Platinum-E cells (Cell Biolabs) are used for retrovirus packaging. Retrovirus is added to Ba/F3 cells. To ensure infection, 4 μg/mL polybrene is added and cells are spinfected. […] Cells with an infection efficiency of 10% to 20% are further cultivated and puromycin selection with 1 μg/mL is initiated. As a control, parental Ba/F3 cells are used to show selection status. Selection is considered successful when parental Ba/F3 cells cultures died. To evaluate the transforming potential of KRASG12 mutations, the growth medium is no longer supplemented with IL-3. Ba/F3 cells harboring the empty vector are used as a control. Approximately ten days before conducting the experiments, puromycin is left out.
(§2) Compounds are added using an Access Labcyte Workstation with a Labcyte Echo 550 or 555 accoustic dispenser. All treatments are performed in technical duplicates. […] AlamarBlue™ (ThermoFisher), a viability stain, is added and fluorescence measured in the PerkinElmer Envision HTS Multilabel Reader. The raw data are imported into and analyzed with the Boehringer Ingelheim proprietary software MegaLab (curve fitting based on the program PRISM, GraphPad Inc.).

KRAS G12C Ba/F3 = KRAS G12C Ba/F3 (Homo sapiens, UniProt P01116, G12C, cells depend on it); test: Ba/F3 proliferation assay, KRAS G12C; format: cell-based; conditions: 72 h, AlamarBlue, read-out: KRAS G12C Ba/F3 IC50
Experimental: as §1, §2

NCI-H2122 cells = test: NCI-H2122 CTG proliferation assay (120 h) (NSCLC, G12C); format: cell-based; conditions: Homo sapiens
Experimental: The CTG assay is designed to measure quantitatively the proliferation of NCI-H2122 cells (ATCC CRL-5985), using the CellTiter Glow Assay Kit (Promega G7571). Cells are grown in RPMI medium (ATCC) supplemented with Fetal Calf Serum (Life Technologies, Gibco BRL, Cat. No. 10270-106). On “day 0” 200 NCI-H2122 cells are seeded in 60 μL RPMI ATCC+10% FCS+Penstrep in a black 384-well plate, flat and clear bottom (Greiner, PNr. 781091). Cells are then incubated in the plates at 37° C. in a CO2 incubator overnight. On day 1, compounds (10 mM stock in DMSO) are added with the ECHO acoustic liquid handler system (Beckman Coulter), including DMSO controls. Plates are incubated for 120 h, and cell viability is measured using CellTiter-Glo luminescent cell viability reagent (Promega product code G7570). Viability (stated as percent of control) is defined as relative luminescence units RLU of each well divided by the RLU of cells in DMSO controls. […] values are determined from viability measurements by non-linear regression using a four parameter model. • AsPC-1 CTG proliieradon assay (120 h) (pancreatic cancer, G12D)

[1] = Metabolic (microsomal) stability assay, human liver microsomes (HLM); format: in vitro ADME; conditions: 1 μM, predicted clearance as percent of liver blood flow
Experimental: The metabolic degradation of the test compound is assayed at 37° C. with pooled liver microsomes (mouse (MLM), rat (RLM) or human (HLM)). The final incubation volume of 48 μL per time point contains TRIS buffer (pH 7.5; 0.1 M), magnesium chloride (6.5 mM), microsomal protein (0.5 mg/mL for mouse/rat, 1 mg/mL for human specimens) and the test compound at a final concentration of 1 μM. Following a short preincubation period at 37° C., the reactions are initiated by addition of 12 μL beta-nicotinamide adenine dinucleotide phosphate, reduced form (NADPH, 10 mM) and terminated by transferring an aliquot into solvent after different time points (0, 5, 15, 30, 60 min). Additionally, the NADPH-independent degradation is monitored in incubations without NADPH, terminated at the last time point by addition of acetonitrile. The quenched incubations are pelleted by centrifugation (4,000 rpm, 15 min). An aliquot of the supernatant is assayed by LC-MS/MS to quantify the concentration of parent compound in the individual samples.
In vitro intrinsic clearance (CLint, in vitro) is calculated from the time course of the disappearance of the test drug during the microsomal incubation. Each plot is fitted to the first-order elimination rate constant as C(t)=C0*exp(−ke*t), where C(t) and C0 are the concentration of unchanged test drug at incubation time t and that at preincubation and ke is the disappearance rate constant of the unchanged drug. Subsequently, CLint, in vitro (μL min^−1·amount protein) values are converted to predicted CLint, in vitro (mL min^−1·kg^−1) from incubation parameters according to the equation CLint, in vitro=CLint, in vitro×(incubation volume (ml)/amount protein (mg))×(amount protein (mg)/g liver tissue)×(liver weight/body wt.). For better across species comparison the predicted clearance is expressed as percent of the liver blood flow [% QH](mL min^−1·kg^−1) in the individual species. In general, high stability (corresponding to low % QH) of the compounds across species is desired.

[2] = Plasma protein binding assay (PPB), equilibrium dialysis; format: in vitro ADME; conditions: bovine, 10% FCS in PBS, read-out: PPB 10% FCS (% fu)
Experimental: Binding of test compounds to plasma was determined using equilibrium dialysis (ED) and quantitative mass spectrometry interfaced with liquid chromatography (LC-MS). In brief, ED was performed with dialysis devices consisting of two chambers separated by a semipermeable membrane with a molecular weight cut-off of 5-10 kg/mol. One chamber was filled with 10% FCS in PBS containing 1-10 μmol/L test compound and the other chamber was filled with phosphate-buffer saline (PBS) with or without dextran. The dialysis chamber was incubated for 3-5 hours at 37° C. After incubation, protein was precipitated from aliquots of each chamber and the concentration of test compound in the supernatant of the plasma-containing compartment (cserum) and of the buffer-containing compartment (cbuffer) was determined by LC-MS. The fraction of unbound test compound (not bound to plasma) (fu) was calculated according to the following equation: […]

Sequence of KRAS G12D Ba/F3 (P01116 whole entry G12D, canonical isoform): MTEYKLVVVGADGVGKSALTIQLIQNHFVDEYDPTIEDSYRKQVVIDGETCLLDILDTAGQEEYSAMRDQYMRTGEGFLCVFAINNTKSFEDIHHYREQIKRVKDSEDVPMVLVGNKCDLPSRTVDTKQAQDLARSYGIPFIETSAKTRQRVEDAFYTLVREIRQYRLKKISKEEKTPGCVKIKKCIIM
Sequence of KRAS G12C Ba/F3 (P01116 whole entry G12C): as the sequence (P01116 whole entry G12D, canonical isoform) above, with D12C counted along it

Compound	GI50 (KRAS G12D Ba/F3)	GI50 (KRAS G12C Ba/F3)	IC50 (NCI-H2122 cells)	HLM QH [%] [1]	fraction unbound [2]
C[C@H](Oc1cc(N(C)C)nc(-c2noc3c2CCC[C@@]32CCCc3sc(N)c(C#N)c32)n1)[C@@H]1CCCN1C [II-10]	81 nM	61 nM	2420 nM	<24%	0.08
C[C@H](Oc1cc(Nc2cnccn2)nc(-c2noc3c2CCC[C@@]32CCCc3sc(N)c(C#N)c32)n1)[C@@H]1CCCN1C [II-14]	59 nM	15 nM	1420 nM	<24%	0.1
C[C@H](Oc1cc(Sc2ncccn2)nc(-c2onc3c2CCC[C@@]32CCCc3sc(N)c(C#N)c32)n1)[C@@H]1CCCN1C [Example I-7]	97 nM	75 nM	3610 nM	38%	0.61
C[C@H](Oc1cc(Nc2ccccn2)nc(-c2onc3c2CCC[C@@]32CCCc3sc(N)c(C#N)c32)n1)[C@@H]1CCCN1C [Example I-6]	47 nM	58 nM	1120 nM	<24%	0.31
C[C@H]1CN(C)CCCN1c1cc(O[C@@H]2CNC2(C)C)nc(-c2noc3c2CCC[C@@]32CCCc3sc(N)c(C#N)c32)n1 [II-28]	130 nM	2080 nM	9740 nM	26%	0.59
C[C@H](Oc1cc(N(C)CCN(C)C)nc(-c2noc3c2CCC[C@@]32CCCc3sc(N)c(C#N)c32)n1)[C@@H]1CCCN1C [II-20]	304 nM	376 nM	4700 nM	<24%	0.8
C[C@H](Oc1cc(Nc2ccncn2)nc(-c2noc3c2CCC[C@@]32CCCc3sc(N)c(C#N)c32)n1)[C@@H]1CCCN1C [II-15]	59 nM	29 nM	847 nM	<24%	0.5

Now those with a lower GI50 (KRAS G12D Ba/F3), led by results:

GI50 (KRAS G12D Ba/F3)	GI50 (KRAS G12C Ba/F3)	IC50 (NCI-H2122 cells)	HLM QH [%] [1]	fraction unbound [2]	Compound
3 nM	203 nM	1210 nM	37%	0.31	C[C@H](Oc1cc(O[C@@H]2CNC2(C)C)nc(-c2noc3c2CCC[C@@]32CCCc3sc(N)c(C#N)c32)n1)[C@@H]1C[C@@H](F)CN1C [II-31]
15 nM	85 nM	389 nM	46%	0.48	COc1c(OCC2(N(C)C)COC2)nc(-c2noc3c2CCC[C@@]32CCCc3sc(N)c(C#N)c32)nc1O[C@@H](C)[C@@H]1CCCN1C [II-25]
38 nM	17 nM	861 nM	31%	0.5	COCCOc1cc(O[C@@H](C)[C@@H]2CCCN2C)nc(-c2noc3c2CCC[C@@]32CCCc3sc(N)c(C#N)c32)n1 [II-5]
28 nM	14 nM	2130 nM	36%	0.62	C[C@H](Oc1cc(NCC2COC2)nc(-c2noc3c2CCC[C@@]32CCCc3sc(N)c(C#N)c32)n1)[C@@H]1CCCN1C [II-11]
37 nM	17 nM	532 nM	<24%	0.2	C[C@H](Oc1cc(Nc2ncco2)nc(-c2noc3c2CCC[C@@]32CCCc3sc(N)c(C#N)c32)n1)[C@@H]1CCCN1C [II-13]
5 nM	4 nM	2280 nM	69%	0.57	C[C@H](Oc1cc(Oc2cncnc2)nc(-c2onc3c2CCC[C@@]32CCCc3sc(N)c(C#N)c32)n1)[C@@H]1CCCN1C [Example I-3]
6 nM	4 nM	740 nM	70%	0.31	C[C@H](Oc1cc(Oc2cccnc2)nc(-c2onc3c2CCC[C@@]32CCCc3sc(N)c(C#N)c32)n1)[C@@H]1CCCN1C [Example I-2]
27 nM	17 nM	275 nM	70%	0.12	C[C@H](Oc1cc(Oc2ccon2)nc(-c2noc3c2CCC[C@@]32CCCc3sc(N)c(C#N)c32)n1)[C@@H]1CCCN1C [II-3]
11 nM	51 nM	1260 nM	30%	0.45	C[C@H](Oc1cc(OCC2(N(C)C)COC2)nc(-c2onc3c2CCC[C@@]32CCCc3sc(N)c(C#N)c32)n1)[C@@H]1CCCN1C [Example I-8]
22 nM	195 nM	2200 nM	48%	0.72	C[C@H](Oc1cc(OCC2(N(C)C)CC2)nc(-c2noc3c2CCC[C@@]32CCCc3sc(N)c(C#N)c32)n1)[C@@H]1CCCN1C [II-21]
